One experiment concerns UCI-101 tumor xenografts. As to the kind of experiment: Tumor xenograft size after multiple dosing (days 8, 10, 12). Particulars: ip on days 8, 10 and 12; stilbene 5c 50 mg/kg, tirapazamine 60 mg/kg; day 14; 6 mice per group. In kind it is in vivo, nude mice.
The subject of the next experiment is UCI101 tumor xenografts. As to the kind of experiment: Tumor necrosis in H&E sections three days after treatment. The settings on record: tirapazamine 60 mg/kg ip, 60 min later stilbene 5c 50 mg/kg ip; sacrificed three days later.
The subject of experiment [1] is UCI-101 ovarian cancer tumor xenografts. As to the kind of experiment: Real-time measurement of tumor oxygen and blood flow (OxyLite/OxyFlo). The settings on record: 50 mg/kg intraperitoneal. In kind it is in vivo, nude mice. How it is done: FIG. 3. Tumor blood flow and oxygen content in tumor. Oxygen and blood flow were monitored by OxyFlo and OxyLite system (Optronix, Oxford, UK). Mice were anesthetized with isoflurane and a triple sensor that records temperature, oxygen and blood flow was inserted into tumor and left for 1 hour for recording. Shown are the results of three mice with similar size subcutaneous tumors derived from UCI-101 ovarian cancer cells. Top panels are oxygen level and lower panels are tumor blood flow. Timing of St5c injection was marked.
Nude mice were injected subcutaneously with UCI-101 ovarian cancer cells to form tumor xenografts. Tumor xenografts were subjected to oxygen and blood flow study when tumor size reached 8-10 mm in largest diameter. Tumor was punctured with 25 G needle to make a tunnel for insertion of sensor probe. The tip of the sensor probe was left in the center of the tumor. Tumor oxygen level and blood flow were determined by OxyLite 2000 dual channel monitoring system with “bare-fibre” type sensor probe, which is designed for measuring tissue oxygen, temperature and blood flow using laser Doppler technique (Optonix, oxford, UK). The measurement was done in a real time basis (100 measurements per second) and the oxygen level and tumor blood flow were recording continuously. Because the initial trauma induced by needle and insertion of sensor probe can interfere with blood flow and oxygenation, each mouse was recorded first without treatment for at least 20 min before the mice was injected intraperitoneally with the tested VDA cis-3, 4′,5-trimethoxy-3′-aminostilbene (stilbene 5c) at 50 mg/kg. The tumor blood flow and oxygen level was then recorded for another 20 min after treatment.
In this study, we performed proof of concept study with VDA stilbene 5c to confirm that stilbene 5c induce tumor hypoxia. […]
There are several issues that need to be considered in order to interpret the results. […] All mice were thus recorded for at least 20 min to record the pre-treatment baseline. […]

The next experiment relates to UCI-101 tumor xenograft. As to the kind of experiment: Tumor growth, stilbene 5c with or without bevacizumab. In kind it is in vivo, nude mice. Here is the method: FIG. 4. Efficacy of stilbene 5c in vivo and enhanced effect by bevacizumab. Nude mice were injected with UCI-101 cells subcutaneously and mice are treated with stilbene 5c at 20 mg/kg/day Monday-Friday with or without bevacizumab 10 mg/kg twice a week. Tumor volume was calculated by the long and short axes. Each group contains 8 mice and the average tumor volumes and standard deviations were plotted against days.
Tumor cell lines used in this study include UCI-101 ovarian cancer cells and Hep3B hepatocellular carcinoma cells. Cells are grown in IMEM and DMEM, respectively, supplemented with 10% fetal bovine serum, glutamine, and penicillium/streptomycin in 5% CO2 humidified environment. When cells were grown to 80% confluent, cells were harvested with 1% trypsin and washed with phosphate-buffered saline three times before injected subcutaneously into nude mice. For mouse xenograft studies, 2×10^6 tumor cells were injected in the back subcutaneously. Nude mice were purchased from NCI Development Therapeutic Program as described. Tumor size was monitored by long and short axes (a and b, respectively) by a caliber and tumor volume was calculated by the formula ab^2/2. […]. Treatment with AAA bevacizumab was done by tail vein injection at a dose of 10 mg/kg.
Next we used ovarian cancer UCI101 cells to study the in vivo efficacy of stilbene 5c We first administered stilbene 5c with intraperitoneal injection at 25 mg/kg three times a week. Tumor volume was calculated by measuring the long and short axes. […] The failure could be due to the possibility that intermittent dosing leaves a viable rim of tumor, which survives the treatment of VDAs by getting nutritional and blood support from surrounding normal vasculature. When treatment with VDAs is stopped, the viable rim of tumor grows quickly. Tumor vasculature recovers quickly by recruitment of the mobilized endothelial progenitor cells. Based on this rationale, we combined stilbene 5c with bevacizumab, which was used to neutralize VEGF secreted by UCI-101 tumor cells. […]

Procedure for UCI-101 tumor xenografts: The long and short axes of tumor were measured to calculate tumor size and plotted against days. Each treatment group contains 6 mice.
Mice were then sacrificed at day 14. The long and short axes of tumors were measured to calculate tumor size and plotted against days. Each treatment group contains 6 mice.
Tumor cell lines used in this study include UCI-101 ovarian cancer cells and Hep3B hepatocellular carcinoma cells. Cells are grown in IMEM and DMEM, respectively, supplemented with 10% fetal bovine serum, glutamine, and penicillium/streptomycin in 5% CO2 humidified environment. When cells were grown to 80% confluent, cells were harvested with 1% trypsin and washed with phosphate-buffered saline three times before injected subcutaneously into nude mice. For mouse xenograft studies, 2×10^6 tumor cells were injected in the back subcutaneously. Nude mice were purchased from NCI Development Therapeutic Program as described. Tumor size was monitored by long and short axes (a and b, respectively) by a caliber and tumor volume was calculated by the formula ab^2/2. […] Treatment with AAA bevacizumab was done by tail vein injection at a dose of 10 mg/kg.
Next we measured the size of tumor xenografts after multiple dosing. Nude mice were injected subcutaneously with UCI-101 cells and tumor became visible after day 7. […] Tumor xenografts were measured and sizes are plotted in FIG. 7.
Procedure for UCI101 tumor xenografts: Mice were sacrificed three days later and tumors were harvested for H&E section. […] The portion of tumor that stained darker is viable, whereas the portion in lighter color is the necrotic area.
After 60 min, stilbene 5c was administered intraperitoneally at 50 mg/kg, which has been established to be capable of inducing profound tumor hypoxia within minutes (FIG. 3). […] Mice were then sacrificed three days later. Tumors were harvested and the center portion of tumor was sliced and analyzed with histological section and H&E staining.

`COc1cc(/C=C\c2ccc(OC)c(N)c2)cc(OC)c1` [stilbene 5c, cis-3, 4′, 5-trimethoxy-3′-aminostilbene]: the “size of tumor compared with the control” value with UCI-101 tumor xenografts is “about 50%”. Moreover, the “area of tumor necrosis (H&E, qualitative)” value with UCI101 tumor xenografts is “very small areas of tumor necrosis”. The “tumor oxygen level after treatment” value in experiment [1] (all three mice, within 20-30 min recording, baseline 15-60 mm Hg) was “less than 10 mm Hg”. In addition, the “tumor blood flow after treatment, of the level before stilbene treatment” value in experiment [1] (mice #1 and 3) is listed as “less than 25%”. Besides, in experiment [1] (mouse #2 (low baseline flow 200-300)), the “tumor blood flow change” value is “significant in the beginning but subsequently recovered in some degree though still lower than baseline”. Besides, the “difference in tumor growth between control and treated mice” value in the experiment with UCI-101 tumor xenograft (intraperitoneal 25 mg/kg three times a week) is “did not detect any difference”. In addition, the tumor growth suppression entry with UCI-101 tumor xenograft (stilbene 5c 20 mg/kg/day Monday to Friday for two weeks, bevacizumab 10 mg/kg twice a week for 5 doses) is listed as “about 45%”.

The values are drawn from patent publication US10159676B2, “Induction of tumor hypoxia for cancer therapy” (Virginia Commonwealth University, priority 2008, dated 2018).
